Test results reported in publication PMC3227451, “Structure-based development of novel sirtuin inhibitors” (Aging (Albany NY), 2011).
Read-outs that look alike come from different tables or passages of the source.

Key:
Type in all cases: biochemical
Sirt2 = biological target: T1, Sirt2 (Homo sapiens, UniProt Q8IXJ6); test: Fluor-de-Lys peptide deacetylation assay, Sirt2
T1 sequence (Q8IXJ6 34-356): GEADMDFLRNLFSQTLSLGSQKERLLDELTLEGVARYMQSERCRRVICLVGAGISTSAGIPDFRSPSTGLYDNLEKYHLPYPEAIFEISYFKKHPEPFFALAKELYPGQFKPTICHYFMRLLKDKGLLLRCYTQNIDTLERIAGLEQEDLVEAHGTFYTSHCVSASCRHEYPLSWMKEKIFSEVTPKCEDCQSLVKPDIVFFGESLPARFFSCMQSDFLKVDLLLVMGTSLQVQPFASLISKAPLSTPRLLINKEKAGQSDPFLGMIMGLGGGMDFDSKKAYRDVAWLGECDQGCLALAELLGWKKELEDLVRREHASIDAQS
Description: The Sirt2 construct was expressed in E. coli Rosetta2 cells (Merck) in LB/Ampicillin/Chloramphenicol medium. Cells were grown at 37 °C, and expression induced at an OD600 of 0.6-0.8 for 4 h with 0.5 mM IPTG. Harvested cells were resuspended in buffer A (50 mM Tris/HCl pH 7.8, 200 mM NaCl, 2 mM DTT), disrupted with a Sonifier, and cell debris removed by 40 min centrifugation at 4 °C, 18000 rpm in a HFA22.50 rotor. The supernatant was supplemented with 10 mM imidazole and incubated with Ni-NTA resin for 1 h at 4 °C. […] The protein was concentrated in an amicon unit (Millipore, Billerica, USA) and digested over night at 4 °C with TEV-protease. The protease was removed from cleaved Sirt2 by incubation with Ni-NTA resin for 1 h at 4 °C. The protein was concentrated, 1:5 diluted with 50 mM Tris/HCl, pH 7.8, and applied to a HiTrap Q anion exchange column (GE Healthcare) equilibrated with 50 mM Tris/HCl, pH 7.8, 50 mM NaCl, 2 mM DTT and eluted with a gradient (20 column volumes) to 50 mM Tris/HCl, pH 7.8, 1 M NaCl, 2 mM DTT. Sirt2 was then applied to a Superdex200 gel filtration column (GE Healthcare) equilibrated in 20 mM Tris/HCl, pH 7.8, 150 mM NaCl, 2 mM DTT. The eluted protein was analyzed by SDS-PAGE, re-concentrated, and shock-frozen in liquid nitrogen for storage at -80 °C.
(§1) The commercial Fluor-de-Lys (FdL) assay kits 1 and 2 (Biomol, Plymouth Meeting, USA) were used to test the deacetylase activity of the four Sirtuins. In both kits the substrate derived from p53 is composed of three amino acids, the acetyl lysine and a C-terminally attached fluorophor. For Sirt2 and 3, FdL-2 peptide (QPK(acetyl-K)) was used, and FdL-1 peptide (RHK(acetyl-K)) for Sirt5 and Sirt6. All tests were done with 0.1 mM of the respective FdL peptide and 0.5 mM NAD^+ as substrates.
(§2) NCI compound stocks were prepared by dissolving them in DMSO at a concentration of 5 mM. The initial screens with all 40 compounds contained 5 μl Sirtuin solution (Sirt2/3 0.1 mg/ml stock concentration; Sirt5/6 1 mg/ml), 1 μl of compound stock (resulting in a 100 μM end concentration), 15 μl FdL substrate, and assay buffer (supplied in the assay kit) to a total volume of 50 μl. As control reactions, peptide with either the compound (without Sirtuin) or with Sirtuin and DMSO instead of compound were measured. After starting the reactions by adding the FdL substrate, assays were incubated for 30 min at 37 °C. Subsequently, 50 μl of a 10 mg/ml trypsin stock (“Developer solution”) were added and the reactions were incubated for 45 min at room temperature. Fluorescence values were measured in a fluorometric plate reader with excitation at 360 nm and read out at 485 nm. Values were then corrected with the control reaction (same compound, but without Sirtuin).
(§3) All measurements shown are averages of duplicates (screen) or triplicates (dose-response curves), and representatives of at least two independent replications. Error bars indicate standard deviations.

Sirt6 = biological target: T2, Sirt6 (Homo sapiens, UniProt Q8N6T7); test: Fluor-de-Lys peptide deacetylation assay, Sirt6
T2 construct: Sirt6 residues 13-308; His-tag with linker comprising a TEV protease cleavage site (N, cleaved yes); made in house; host or cells: E. coli Rosetta2
Description: as §1, §2, §3

Sirt5 = biological target: T3, Sirt5 (Homo sapiens, UniProt Q9NXA8); test: Fluor-de-Lys peptide deacetylation assay, Sirt5
T3 construct: Sirt5 residues 34-302; His-tag with linker comprising a TEV protease cleavage site (N); made in house
T3 sequence (Q9NXA8 34-302): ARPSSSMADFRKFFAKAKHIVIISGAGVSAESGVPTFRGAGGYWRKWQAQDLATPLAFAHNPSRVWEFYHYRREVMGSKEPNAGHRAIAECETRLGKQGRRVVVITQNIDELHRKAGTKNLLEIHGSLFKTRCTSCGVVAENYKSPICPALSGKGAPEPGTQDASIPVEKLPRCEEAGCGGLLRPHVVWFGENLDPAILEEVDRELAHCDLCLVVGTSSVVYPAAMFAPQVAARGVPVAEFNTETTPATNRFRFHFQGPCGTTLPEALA
Description: (§4) Sirt3 was expressed in E. coli and purified via Ni-NTA and size exclusion chromatography as described elsewhere, and Sirt5 according to the protocol of Schuetz et al.. […] The protein was bound to the HiTrapQ column in buffer A and eluted in a gradient to buffer A supplemented with 400 mM KCl. Fractions were analyzed by SDS-PAGE, and the Sirt1 fractions were pooled and transferred into buffer A using a NAP column (GE Healthcare).
as §1, §2, §3

Sirt3 = biological target: T4, Sirt3 (Homo sapiens, UniProt Q9NTG7); test: Fluor-de-Lys peptide deacetylation assay, Sirt3
T4 construct: Sirt3 residues 114-399; His-tag with linker comprising a TEV protease cleavage site (N); made in house; host or cells: E. coli
T4 sequence (Q9NTG7 114-399): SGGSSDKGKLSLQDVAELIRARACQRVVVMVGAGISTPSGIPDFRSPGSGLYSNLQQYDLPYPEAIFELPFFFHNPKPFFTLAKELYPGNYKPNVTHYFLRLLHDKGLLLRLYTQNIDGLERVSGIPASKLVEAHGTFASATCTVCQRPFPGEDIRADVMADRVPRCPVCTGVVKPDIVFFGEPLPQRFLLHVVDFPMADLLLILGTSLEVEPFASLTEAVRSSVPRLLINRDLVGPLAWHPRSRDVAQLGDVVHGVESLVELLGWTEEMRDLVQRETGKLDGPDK
Description: as §4, §1, §2, §3

[1] = 100 μM compound, 0.1 mM FdL-2 peptide, 0.5 mM NAD+
[2] = 100 μM compound, 0.1 mM FdL-1 peptide, 0.5 mM NAD+

T2 sequence (Q8N6T7 13-308): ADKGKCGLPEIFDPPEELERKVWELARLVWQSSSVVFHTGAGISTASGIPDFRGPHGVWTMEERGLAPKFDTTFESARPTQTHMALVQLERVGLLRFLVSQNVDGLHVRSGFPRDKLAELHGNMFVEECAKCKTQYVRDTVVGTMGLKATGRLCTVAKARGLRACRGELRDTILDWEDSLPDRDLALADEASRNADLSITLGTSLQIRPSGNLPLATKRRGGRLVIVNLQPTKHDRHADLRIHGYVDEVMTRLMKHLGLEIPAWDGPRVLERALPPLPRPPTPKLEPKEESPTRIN

Compound | Effect on the activity of Sirt2 (Sirt2; [1]) | Effect on the activity of Sirt6 (Sirt6; [2]) | Effect on the activity of Sirt5 (Sirt5; [2]) | Effect on the activity of Sirt3 (Sirt3; [1]) | Effect on the activity of Sirt2 (Sirt2) | Effect on the activity of Sirt6 (Sirt6) | Effect on the activity of Sirt5 (Sirt5) | Effect on the activity of Sirt3 (Sirt3)
7-(1-naphthyl)-7^5-dibenzo[a,j]phenazin-5-amine compound with 7-(1-naphthyl)-7^5-dibenzo[a,j]phenazine-5,9-diamine (1:1), (Sudan Red) [CSC1] | inhibition^a (significant inhibitory effects (>25% loss of activity)) | inhibition (significant inhibitory effects (>25% loss of activity)) | inhibition (significant inhibitory effects (>25% loss of activity)) | inhibition (significant inhibitory effects (>25% loss of activity)) | – | – | – | –
c1ccc2c(c1)C(=Nc1ccc(N=C3c4ccccc4-c4ccccc43)cc1)c1ccccc1-2 [CSC2, N1,N4-di(9H-fluoren-9-ylidene)-1,4-benzenediamine] | inhibition (significant inhibitory effects (>25% loss of activity)) | --- (no such effect) | --- (no such effect) | --- (no such effect) | – | – | – | –
O=C1c2ccccc2-c2ccc(/N=[N+](\[O-])c3ccc4c(c3)C(=O)c3ccccc3-4)cc21 [CSC3] | --- (no such effect) | --- (no such effect) | --- (no such effect) | --- (no such effect) | – | – | – | –
Cc1cc(N2CCOCC2)nc2ccc(Cc3ccc4nc(N5CCOCC5)cc(C)c4c3)cc12 [CSC4, 4-methyl-6-((4-methyl-2-(4-morpholinyl)-6-quinolinyl)methyl)-2-(4-morpholinyl)quinoline] | inhibition (significant inhibitory effects (>25% loss of activity)) | --- (no such effect) | --- (no such effect) | --- (no such effect) | – | – | – | –
O=C1c2ccccc2C(=O)c2c(Nc3cc4c5c(ccc6c7ccc8c9c(cc(Nc%10cccc%11c%10C(=O)c%10ccccc%10C%11=O)c(c3c56)c97)-c3ccccc3C8=O)C(=O)c3ccccc3-4)cccc21 [CSC6, 16,17-bis((9,10-dioxo-9,10-dihydro-1-anthracenyl)amino)anthra[9,1,2-cde]benzo[rst]pentaphene-5,10-dione] | inhibition (significant inhibitory effects (>25% loss of activity)) | inhibition (significant inhibitory effects (>25% loss of activity)) | --- (no such effect) | --- (no such effect) | – | – | – | –
S=C(Nc1ccc2c(c1)Cc1ccccc1-2)Nc1ccc2c(c1)Cc1ccccc1-2 [CSC7, N,N'-di(9H-fluoren-2-yl)thiourea] | inhibition (significant inhibitory effects (>25% loss of activity)) | --- (no such effect) | --- (no such effect) | --- (no such effect) | – | – | – | –
CC(C)c1ccc(C=C2C=C(c3ccc4ccccc4c3)OC2=O)cc1 [CSC9, 3-(4-isopropylbenzylidene)-5-(2-naphthyl)-2(3H)-furanone] | inhibition (significant inhibitory effects (>25% loss of activity)) | --- (no such effect) | activation^c | --- (no such effect) | – | – | – | –
O=C(C[n+]1ccc2ccccc2c1)c1ccc2ccc3ccccc3c2c1 [CSC10, 2-(2^5-isoquinolin-2-yl)-1-(3-phenanthryl)ethanone] | – | – | – | – | inhibition (key: inhibition: significant inhibitory effects (>25% loss of activity); ---: no such effect) | inhibition (key: inhibition: significant inhibitory effects (>25% loss of activity); ---: no such effect) | --- (key: inhibition: significant inhibitory effects (>25% loss of activity); ---: no such effect) | inhibition (key: inhibition: significant inhibitory effects (>25% loss of activity); ---: no such effect)
O=S1(=O)CCN(c2ccccc2CC(c2c[nH]c3ccccc23)c2c[nH]c3ccccc23)CC1 [CSC11, 3-(2-(2-(1,1-dioxido-4-thiomorpholinyl)phenyl)-1-(1H-indol-3-yl)ethyl)-1H-indole] | --- (no such effect) | --- (no such effect) | --- (no such effect) | --- (no such effect) | – | – | – | –
O=S(=O)(c1ccc2ccccc2c1)N1CCN(S(=O)(=O)c2ccc3ccccc3c2)CC1 [CSC12, 1,4-bis(2-naphthylsulfonyl)piperazine] | --- (no such effect) | --- (no such effect) | --- (no such effect) | --- (no such effect) | – | – | – | –
O=C1c2cc([N+](=O)[O-])ccc2-c2ccc3c4ccc5c6c(ccc(c7ccc1c2c73)c64)C(=O)c1cc([N+](=O)[O-])ccc1-5 [CSC14, 3,12bis(hydroxy(oxido)amino)anthra[9,1,2-cde]benzo[rst]pentaphene-5,10-dione, (Amanthrene Supra Black BBN)] | – | – | – | – | inhibition (key: inhibition: significant inhibitory effects (>25% loss of activity); ---: no such effect) | --- (key: inhibition: significant inhibitory effects (>25% loss of activity); ---: no such effect) | inhibition (key: inhibition: significant inhibitory effects (>25% loss of activity); ---: no such effect) | --- (key: inhibition: significant inhibitory effects (>25% loss of activity); ---: no such effect)
Cc1nc2ccccc2nc1-c1ccc(/N=[N+](\[O-])c2ccc(-c3nc4ccccc4nc3C)cc2)cc1 [CSC15, 2-(4-(1-hydroxy-2-(4-(3-methyl-2-quinoxalinyl)phenyl)-1^5-diazenyl)phenyl)-3-methylquinoxaline] | --- (no such effect) | --- (no such effect) | --- (no such effect) | --- (no such effect) | – | – | – | –
